Reference: article PMC10485906, “Development of a Dihydroquinoline–Pyrazoline GluN2C/2D-Selective Negative Allosteric Modulator of the N-Methyl-D-aspartate Receptor” (ACS Chemical Neuroscience, 2023)
Where “and” joins values, the source holds several entries; their conditions need not be identical. Equal values may be shown once. Marks after values point to notes of the source that are not given here.

Columns and labels:
GluN1/GluN2C [1] = molecular target: GluN1/GluN2C (Rattus norvegicus, UniProt P35439+Q00961); test: Two-electrode voltage-clamp recordings, Xenopus laevis oocytes, GluN1/GluN2C; assay type: cell-based; parameters: GluN2B (NM_012574.1), GluN2C (NM_012575.3), and GluN2D (NM_022797.2) were provided by; expressed in transfected cells; host or cells: Xenopus laevis oocytes (cRNA injection); conditions: 100 μM glutamate, 30 μM glycine; for remaining activity at 30 µM: 30 μM test compound, mean ± SEM, read-out: I 30 μM / I control GluN2C; for IC50: read-out: IC50 GluN2C [95% CI]
Sequence of GluN1/GluN2C (Rattus norvegicus, UniProt P35439+Q00961) (Q00961 20-1237, other chains not shown): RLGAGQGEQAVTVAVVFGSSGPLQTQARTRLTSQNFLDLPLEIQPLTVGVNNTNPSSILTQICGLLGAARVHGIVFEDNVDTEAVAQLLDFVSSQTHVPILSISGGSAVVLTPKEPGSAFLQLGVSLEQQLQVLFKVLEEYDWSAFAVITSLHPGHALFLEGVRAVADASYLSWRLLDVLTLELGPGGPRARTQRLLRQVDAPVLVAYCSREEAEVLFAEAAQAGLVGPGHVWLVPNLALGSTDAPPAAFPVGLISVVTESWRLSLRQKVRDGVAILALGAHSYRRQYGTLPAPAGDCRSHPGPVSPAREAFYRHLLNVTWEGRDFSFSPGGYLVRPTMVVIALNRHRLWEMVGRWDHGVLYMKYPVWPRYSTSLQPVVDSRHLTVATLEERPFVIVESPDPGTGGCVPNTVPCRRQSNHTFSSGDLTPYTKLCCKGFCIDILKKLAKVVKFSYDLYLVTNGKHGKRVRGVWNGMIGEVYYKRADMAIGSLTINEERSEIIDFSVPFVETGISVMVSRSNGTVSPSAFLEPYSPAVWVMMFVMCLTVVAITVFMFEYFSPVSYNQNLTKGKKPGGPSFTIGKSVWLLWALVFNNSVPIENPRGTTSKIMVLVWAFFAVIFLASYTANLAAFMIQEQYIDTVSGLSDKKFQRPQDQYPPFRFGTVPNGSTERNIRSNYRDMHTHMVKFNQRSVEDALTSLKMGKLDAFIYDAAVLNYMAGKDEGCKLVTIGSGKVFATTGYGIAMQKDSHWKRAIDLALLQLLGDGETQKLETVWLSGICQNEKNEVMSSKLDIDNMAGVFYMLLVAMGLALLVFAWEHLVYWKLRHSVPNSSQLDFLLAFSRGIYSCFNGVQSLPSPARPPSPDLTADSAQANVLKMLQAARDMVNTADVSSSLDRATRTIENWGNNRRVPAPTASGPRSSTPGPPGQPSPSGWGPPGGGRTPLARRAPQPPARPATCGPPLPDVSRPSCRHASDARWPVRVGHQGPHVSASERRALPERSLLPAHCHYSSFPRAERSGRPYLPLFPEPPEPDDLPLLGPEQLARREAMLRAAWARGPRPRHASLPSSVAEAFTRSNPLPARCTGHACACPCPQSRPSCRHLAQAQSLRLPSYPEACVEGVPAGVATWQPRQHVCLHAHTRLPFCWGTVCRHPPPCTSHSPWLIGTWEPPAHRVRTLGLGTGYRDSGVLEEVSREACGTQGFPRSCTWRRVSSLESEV
Description: (§1) All target compounds were evaluated for NMDAR antagonism using two-electrode voltage-clamp recordings from Xenopus laevis oocytes coexpressing recombinant GluN1 and GluN2A-D subunits (Table 1).[32],[42],[33] All analogues were assessed as either a racemic (2b, 2e–2r) or diastereomeric (2d) mixture to simplify purification and streamline in vitro analysis. […] Moreover, as illustrated by the significant loss of NMDAR activity observed with nitrile 2e, the DQP allosteric site necessitated an H-bond donor/acceptor relationship at the carboxylate position. […] The loss of NMDAR activity observed with the trifluoro analogue 2j (Table S1) reinforced the necessity for an H-bond donor/acceptor relationship to maintain allosteric binding and established that fluorine substitution alone is ineffective. […] A single methyl substitution of the amide in compound 2q improved selectivity against GluN2A and had similar potency as 2a, whereas dual methyl substitution reduced potency (2r). We expect that this is likely due to the ability of the […] of the amide to accept hydrogen bonds while the amide can readily donate a proton.
(§2) Unfertilized Xenopus laevis oocytes were obtained from Ecocyte (Austin, TX), or ovaries were purchased from Xenopus 1 (Dexter, MI) and oocytes prepared as previously described.[42],[47] Two-electrode voltage-clamp recordings were performed on oocytes expressing recombinant rat GluN1/GluN2A, GluN1/GluN2B, GluN1/GluN2C, or GluN1/GluN2D. cDNAs for rat GluN1-1a (referred to as GluN1; NCBI Reference Sequence NM_017010.2), GluN2A (NM_012573.4), GluN2B (NM_012574.1), GluN2C (NM_012575.3), and GluN2D (NM_022797.2) were provided by Dr. S. Heinemann from the Salk Institute, Dr. S. Nakanishi from Kyoto University, and Dr. P. Seeburg from the University of Heidelberg. Oocyte isolation, cRNA synthesis, and cRNA injections were performed as previously described.[32],[33],[47] Briefly, Xenopus laevis oocytes were injected with 5–10 ng of cRNA in RNase-free water with the GluN1:GluN2 ratio ranging from 1:1 to 1:5. Oocytes were incubated at 15–19 °C in Barth’s solution consisting of (in mM) 88 NaCl, 1 KCl, 2.4 NaHCO3, 10 HEPES, 0.82 MgSO4, 0.33 Ca(NO3)2, and 0.41 CaCl2 supplemented with 100 μg/mL gentamycin, 40 μg/mL streptomycin, and 50 μg/mL penicillin. Recordings were performed 2–4 days after injection with extracellular recording solution containing (in mM) 90 NaCl, 1 KCl, 10 HEPES, 0.5 BaCl2, and 0.01 EDTA at pH 7.4 adjusted with NaOH. To prevent a gradual increase in current response over the course of the experiment, some oocytes expressing GluN1/GluN2A were injected with 20–50 nL of 2–50 mM K-BAPTA. Concentration–response curves for test compounds were generated by applying a maximally effective concentration of glutamate (100 μM) and glycine (30 μM), followed by glutamate and glycine with variable concentrations of test compounds up to 30 μM. The test compounds were prepared as 20 mM stock solutions in DMSO and diluted to the final concentration in recording solution. The DMSO content was 0.05–0.5% (v/v). […] Methods for off-target analysis are given in the Supporting Information.
(§3) Confidence intervals were determined for the log(IC50). The time course of relaxation during inhibitor application or deactivation following rapid removal of NMDA or glutamate was fitted by the equation [drawing 5] 2

GluN1/GluN2C [2] = molecular target: GluN1/GluN2C (Rattus norvegicus, UniProt Q00961); test: as above; assay type: cell-based; parameters: GluN2B (NM_012574.1), GluN2C (NM_012575.3), and GluN2D (NM_022797.2) were provided by; expressed in transfected cells; host or cells: Xenopus laevis oocytes (cRNA injection); conditions: for I / I control GluN2C: tested at 10 μM (footnote b); for I / I control GluN2C / I3 μM/Icontrol GluN2C: 100 μM glutamate, 30 μM glycine; for I3 μM/Icontrol GluN2C: tested at 3 μM
Sequence of GluN1/GluN2C (Rattus norvegicus, UniProt Q00961) (Q00961 20-1237, other chains not shown): as above
Description: as §1, §2, §3

Row | remaining activity at 30 µM (GluN1/GluN2C [1]) [%] | I / I control GluN2C (GluN1/GluN2C [2]; mean ± SEM) | IC50 (GluN1/GluN2C [1]) [nM] | I3 μM/Icontrol GluN2C (GluN1/GluN2C [2]; mean ± SEM) | Structure (SMILES) | further results
1 | 98 ± 0.95 | – | – | – | O=C(CC(F)(F)C(=O)N1N=C(c2c(-c3ccc(Cl)cc3)c3ccccc3[nH]c2=O)CC1c1ccc(Cl)cc1)OCc1ccccc1 (stereo not drawn) [2p] | –
2 | – | 28 ± 2.2 ^b (4,20) % | 4100 | – | CN(C)C(=O)CC(F)(F)C(=O)N1N=C(c2c(-c3ccc(Cl)cc3)c3ccccc3[nH]c2=O)CC1c1ccc(Cl)cc1 (stereo not drawn) [2r] | –
3 | – | – | 61 | 13 ± 2.6 (3, 16) % | O=C(O)CC(F)(F)C(=O)N1N=C(c2c(-c3ccc(Cl)cc3)c3ccccc3[nH]c2=O)C[C@H]1c1ccc(Cl)cc1 [(S)-(−)-2i] | % control GluN1/GluN2C (GluN1/GluN2C [2]; 1 µM compound, 100 µM glutamate, 30 µM glycine, mean ± SEM): 16 ± 2.9%; selectivity for GluN2C-containing NMDARs compared to GluN2A- and GluN2B-containing receptors (GluN1/GluN2C [2]; abstract): > 100 fold
4 | 93 ± 0.7 | – | – | – | CCOC(=O)CC(F)(F)C(=O)N1N=C(c2c(-c3ccc(Cl)cc3)c3ccccc3[nH]c2=O)CC1c1ccc(Cl)cc1 (stereo not drawn) [2l] | –
5 | – | 87 ± 0.8% | – | – | CC(C)(C)COC(=O)CC(F)(F)C(=O)N1N=C(c2c(-c3ccc(Cl)cc3)c3ccccc3[nH]c2=O)CC1c1ccc(Cl)cc1 (stereo not drawn) [2o] | –
6 | – | 16 ± 1.6 ^b (3, 20) % | 670 | – | CNC(=O)CC(F)(F)C(=O)N1N=C(c2c(-c3ccc(Cl)cc3)c3ccccc3[nH]c2=O)CC1c1ccc(Cl)cc1 (stereo not drawn) [2q] | –
7 | – | – | 380 | 22 ± 5.2 ^b (3,16) % | NC(=O)CC(F)(F)C(=O)N1N=C(c2c(-c3ccc(Cl)cc3)c3ccccc3[nH]c2=O)CC1c1ccc(Cl)cc1 (stereo not drawn) [2k] | –
8 | 93 ± 4.2 | – | – | – | O=C(CC(F)(F)C(=O)N1N=C(c2c(-c3ccc(Cl)cc3)c3ccccc3[nH]c2=O)CC1c1ccc(Cl)cc1)OCC1CC1 (stereo not drawn) [2n] | –
9 | – | – | 350 | 13 ± 2.5% and 13 ± 2.5 ^b (2,12) % | O=C(O)CC(F)(F)C(=O)N1N=C(c2c(-c3ccc(Cl)cc3)c3ccccc3[nH]c2=O)CC1c1ccc(Cl)cc1 (stereo not drawn) [2i] | I3 μM/Icontrol GluN2C (GluN1/GluN2C [2]; mean ± SEM, listed as racemic 2i): 13 ± 2.5 (2, 12) %
10 | 90 ± 4.3 | – | – | – | CC(C)OC(=O)CC(F)(F)C(=O)N1N=C(c2c(-c3ccc(Cl)cc3)c3ccccc3[nH]c2=O)CC1c1ccc(Cl)cc1 (stereo not drawn) [2m] | –
